Assay results published in US20260027121A1, “LIGAND ACTING ON ADENOSINE RECEPTORS AND COMPOSITION COMPRISING SAME FOR PREVENTION, ALLEVIATION, OR TREATMENT OF OBESITYS” (FUTURE MEDICINE CO., LTD., priority 2022, published 2026).

Experiments:
A3AR = target: T1, A3AR (Homo sapiens, UniProt P0DMS8); assay: cAMP assay at A3AR using full agonist Cl-IB-MECA; assay type: cell-based; settings: FIG. 1C
T1 sequence (P0DMS8 1-318): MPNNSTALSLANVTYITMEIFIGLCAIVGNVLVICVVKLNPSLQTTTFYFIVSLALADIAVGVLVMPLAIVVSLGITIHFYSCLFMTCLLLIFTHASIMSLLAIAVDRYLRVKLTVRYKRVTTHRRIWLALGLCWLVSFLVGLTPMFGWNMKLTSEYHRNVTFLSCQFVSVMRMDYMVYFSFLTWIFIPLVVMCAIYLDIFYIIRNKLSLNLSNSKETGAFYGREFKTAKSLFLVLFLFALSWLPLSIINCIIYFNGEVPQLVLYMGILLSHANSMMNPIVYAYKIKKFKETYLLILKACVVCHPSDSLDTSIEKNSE

brown adipocytes [1] = assay: Cytotoxicity / cell viability (EZ-CYTOX); assay type: cell-based, mouse; settings: 24 hours
Protocol: (§1) Adipocyte precursor cells capable of differentiating into brown adipocytes were isolated from mouse brown adipose tissue. Cells were cultured in Dulbecco's modified Eagle's medium (Welgene, LM001-07) containing 10% fetal bovine serum (FBS, Gibco, 16000044) and 1% Penicillin Streptomycin (Welgene, LS202-02) at 37° C. in a humidified atmosphere with 5% CO2. When the cells reached about 100% confluency, the cells were exposed to a differentiation medium supplemented with 2.5 mM isobutyl methylxanthine (IBMX, Cayman, I5879), 0.125 mM indomethacin (Cayman, 70270), 1 μM dexamethasone (Cayman), 1 μg/mL insulin (Sigma, I9278), and 1 nM triiodothyronine (T3, Cayman, 6028) for 3 days for adipogenesis. Then, the cells were maintained in a growth medium containing 1 μg/mL insulin and 1 nM triiodothyronine (T3) for 3 days.
LJ-4378 is a dual-acting ligand with A2AAR agonist and A3AR antagonist activity. Cell viability was evaluated according to the manufacturer's instructions using EZ-CYTOX (DoGEN, EZ-3000). Absorbance was measured at 450 nm using a microplate reader (Thermo MULTISKAN GO, 8816-2015).

brown adipocytes [2] = assay: Immunoblot of mitochondrial proteins and UCP1 in brown adipocytes; assay type: cell-based, mouse
Protocol: as §1
(§2) In the case of Western blots, the primary antibodies used for Western blots are summarized in [Table 2] above. An anti-rabbit horseradish peroxidase antibody (1:3000, Thermo Fisher, 31460) and an anti-mouse horseradish peroxidase antibody (1:3000, Jackson, 115-035-174) were used as secondary antibodies. All antibodies were diluted in a blocking buffer (5% skimmed milk or 5% bovine serum albumin in TBST). Western blot images were acquired using a Fusion Solo chemiluminescence imaging system (Vilber Lourmat) and analyzed with Evolution Capt software (version 17.03). NIH ImageJ software was used for quantification.

brown adipocytes [3] = assay: MitoTracker staining; assay type: cell-based, mouse; settings: 0.1 μM, FIG. 4B
Protocol: The cells were exposed to MitoTracker™ Red CMXRos (1:3000, Invitrogen, M7512) at 37° C. for 15 minutes to stain mitochondria, and then fixed in 4% paraformaldehyde (PFA, Sigma, 158127). Images were acquired with an LSM800 confocal microscope (Zeiss, Germany) and analyzed with Zen software (version 3.0).

BAT, iWAT, and gWAT = assay: TTC staining of adipose tissue (ex vivo electron transport activity); assay type: in vivo, mouse; settings: mice, 1 mg·kg-1day-1 intraperitoneally, 10 days
Protocol: 6-week-old C57BL/6 male mice and CIDEA reporter mice were used according to the approved protocols by Institutional Animal Care and Use Committees of Seoul National University (SNU-201107-1, SNU-201221-3) for in vivo experiments. The mice were housed under a 12 h-light/12 h-dark cycle condition with free access to a normal chow diet (NCD, Purina Lab, 38057, protein: 24.52% calories, carbohydrate: 63.07% calories, and fat: 12.41% calories) and water at 22±1° C. […] Ex vivo electron transport activity associated with mitochondrial oxidative phosphorylation was evaluated by monitoring the reduction of 0.1% triphenyl tetrazolium chloride (TTC, Sigma, T8877).

CIDEA reporter mice = assay: qPCR of brown adipocyte markers in brown adipose tissue; assay type: in vivo, mouse; settings: BAT, 1 mg kg-1/day, 10 days
Protocol: Mice were treated with vehicle (CTL), LJ-4378 (LJ, 1 mg kg-1/day), […] (CGS21680, 1 mg kg-1/day), or A3 antagonist (LJ-4433, 1 mg kg-1/day) for 10 days. (A-B) Representative bioluminescence in dorsal and lateral positions (n=3, mean±SEM, ** p<0.01, **** p<0.0001). (C) Representative ex vivo fluorescence image and quantification of fluorescence intensity of BAT and iWAT (n=3, mean±SEM, ** p<0.01, **** p<0.0001). (D) qPCR analysis of UCP1 and CIDEAM RNA expression levels of brown adipose tissue (BAT) (n=3, mean±SEM, * p<0.05, ** p<0.01, *** p<0.001).
qPCR analysis was performed to investigate the adenosine receptor expression levels in brown adipocytes differentiated from immortalized brown adipocyte precursor cells. Primers used for the qPCR analysis are listed in the following [Table 3].

HFD-fed mice = assay: Immunoblot of BAT and iWAT of treated obese mice; assay type: in vivo, mouse; settings: 1 mg kg-1/day, 10 days
Protocol: Mice fed a normal chow diet (NCD) and a high-fat diet (HFD) were treated with LJ-4378 (LJ, 1 mg kg-1/day) for 10 days. (A) Immunoblot analysis of BAT (n=6, mean±SEM, ** p<0.01, **** p<0.0001). (B) Immunoblot analysis in iWAT. Tubulin was a loading control. (n=6, mean±SEM, * p<0.05, *** p<0.001, **** p<0.0001).
For a diet-induced obesity model, mice were fed a high-fat diet (HFD)(Research Diets, D12492, protein: 20% kcal, carbohydrate: 20% kcal, and fat: 60% kcal) for 8 weeks. Then, LJ-4378 (1 mg kg-1) was injected into the mice once daily for 10 days.
as §2

With `CCCCC#Cc1nc(N)c2ncn([C@@H]3SC[C@@H](O)[C@H]3O)c2n1` [LJ-4378, 2-(6-amino-2-(hex-1-yn-1-yl)-9H-purin-9-yl)tetrahydrothiophene-3,4-diol] as the compound, how does the “KB value at A3AR” value (A3AR) read?
The value was “nM level”.

And the “concentrations with no effect on cell viability” value (brown adipocytes [1])?
The value was “less than 100 μM”.

What about the “COXIV expression level, fold increase” value (brown adipocytes [2]; 0.1 μM, 24 hours, FIG. 4A) of the same compound?
Its value is 2.18±0.15 fold.

What about the “UCP1 expression level, fold increase” value (brown adipocytes [2]; 0.1 μM, 24 hours, FIG. 4A) of the same compound?
Its value is 2.93±0.23 fold.

What about the “COXIV, fold increase” value (brown adipocytes [2]; 0.1 μM, 24 hours, FIG. 4D) of the same compound?
Its value is 2.53±0.08 fold.

And the “MCAD, fold increase” value (brown adipocytes [2]; 0.1 μM, 24 hours, FIG. 4D)?
Its value is 4.91±0.02 fold.

And the “UCP1, fold increase” value (brown adipocytes [2]; 0.1 μM, 24 hours, FIG. 4D)?
Its value is 2.67±0.38 fold.

What about the “ATP5A protein, fold increase” value (brown adipocytes [2]; 10^−5, 48 hours) of the same compound?
The value was 3.72±0.04 fold.

What about the “MCAD protein, fold increase” value (brown adipocytes [2]; 10^−5, 48 hours) of the same compound?
The value was 2.13±0.03 fold.

And the “SDHB protein, fold increase” value (brown adipocytes [2]; 10^−5, 48 hours)?
The value was 3.71±0.25 fold.

And the “UQCRC2 protein, fold increase” value (brown adipocytes [2]; 10^−5, 48 hours)?
The value was 4.02±0.08 fold.

And the “ATP5A protein, fold increase” value (brown adipocytes [2]; 10^−7, 48 hours)?
Its value is 3.94±0.06 fold.

And the “MCAD protein, fold increase” value (brown adipocytes [2]; 10^−7, 48 hours)?
The value was 1.79±0.09 fold.

And the “SDHB protein, fold increase” value (brown adipocytes [2]; 10^−7, 48 hours)?
The value was 3.41±0.47 fold.

What about the “UQCRC2 protein, fold increase” value (brown adipocytes [2]; 10^−7, 48 hours) of the same compound?
The value was 4.21±0.13 fold.

What about the “ATP5A protein, fold increase” value (brown adipocytes [2]; 10^−9 M, 48 hours) of the same compound?
The value was 3.51±0.05 fold.

And the “MCAD protein, fold increase” value (brown adipocytes [2]; 10^−9 M, 48 hours)?
The value was 1.79±0.03 fold.

What about the “SDHB protein, fold increase” value (brown adipocytes [2]; 10^−9 M, 48 hours) of the same compound?
Its value is 3.47±0.18 fold.

And the “UQCRC2 protein, fold increase” value (brown adipocytes [2]; 10^−9 M, 48 hours)?
The value was 3.96 fold.

What about the “ATP5A protein, fold increase” value (brown adipocytes [2]; 10^−11 M, 48 hours) of the same compound?
Its value is 2.20±0.08 fold.

What about the “MCAD protein, fold increase” value (brown adipocytes [2]; 10^−11 M, 48 hours) of the same compound?
The value was 1.53±0.03 fold.

What about the “SDHB protein, fold increase” value (brown adipocytes [2]; 10^−11 M, 48 hours) of the same compound?
The value was 1.87±0.28 fold.

What about the “UQCRC2 protein, fold increase” value (brown adipocytes [2]; 10^−11 M, 48 hours) of the same compound?
Its value is 2.15±0.03 fold.

And the “mitochondrial membrane potential (MitoTracker staining), fold increase” value (brown adipocytes [3])?
Its value is 2.12±0.06 fold.

And the “mitochondrial activity (TTC staining), fold increase in BAT” value (BAT, iWAT, and gWAT)?
The value was 2.86±0.24 fold.

What about the “mitochondrial activity (TTC staining), fold increase in gWAT” value (BAT, iWAT, and gWAT) of the same compound?
Its value is 1.72±0.16 fold.

And the “mitochondrial activity (TTC staining), fold increase in iWAT” value (BAT, iWAT, and gWAT)?
Its value is 2.07±0.17 fold.

And the “Cidea mRNA level, fold increase” value (CIDEA reporter mice)?
The value was 1.72±0.06 fold.

And the “Ucp1 mRNA level, fold increase” value (CIDEA reporter mice)?
Its value is 2.13±0.21 fold.

What about the “COXIV upregulation in BAT” value (HFD-fed mice) of the same compound?
The value was 5.91±0.23 fold.

What about the “COXIV upregulation in iWAT” value (HFD-fed mice) of the same compound?
Its value is 1.24±0.04 fold.

And the “P-CREB upregulation in BAT” value (HFD-fed mice)?
Its value is 1.54±0.03 fold.

And the “P-CREB upregulation in iWAT” value (HFD-fed mice)?
Its value is 3.86±0.12 fold.

And the “P-HSL upregulation in BAT” value (HFD-fed mice)?
The value was 2.31±0.18 fold.

What about the “P-HSL upregulation in iWAT” value (HFD-fed mice) of the same compound?
The value was 1.72±0.04 fold.

What about the “UCP1 upregulation in BAT” value (HFD-fed mice) of the same compound?
Its value is 1.33±0.06 fold.

And the “UCP1 upregulation in iWAT” value (HFD-fed mice)?
The value was 3.34±0.36 fold.
